Columns and labels:
Aro3 [1] = molecular target: T1, Aro3 (Saccharomyces cerevisiae, UniProt P14843, D154N); assay: DAHP formation, periodate-thiobarbituric acid assay at […] nm; format: biochemical; conditions: read-out: % remaining activity at 10 mM
T1 construct: full-length ORF in pET21, C-terminal His6 tag, expressed in E. coli Rosetta 2 (DE3); Ni-NTA and gel filtration; dimer in crystal

Aro3 [2] = molecular target: T1, Aro3; assay: isothermal titration calorimetry; format: binding
Aro3 [3] = molecular target: T2, Aro3 (Saccharomyces cerevisiae, UniProt P14843); assay: DAHP formation, periodate-thiobarbituric acid assay at […] nm; format: biochemical; conditions: read-out: % inhibition at 0.1 mM
T2 construct: full-length ORF in pET21, C-terminal His6 tag, expressed in E. coli Rosetta 2 (DE3); Ni-NTA and gel filtration; dimer in crystal

Aro3 [4] = molecular target: T2, Aro3; assay: isothermal titration calorimetry; format: binding
Aro3 [5] = molecular target: T3, Aro3 (Saccharomyces cerevisiae, UniProt P14843, K222L); assay: DAHP formation, periodate-thiobarbituric acid assay at […] nm; format: biochemical; conditions: read-out: % inhibition at 0.1 mM
T3 construct: full-length ORF in pET21, C-terminal His6 tag, expressed in E. coli Rosetta 2 (DE3); Ni-NTA and gel filtration; dimer in crystal
T3 sequence (P14843 whole entry K222L): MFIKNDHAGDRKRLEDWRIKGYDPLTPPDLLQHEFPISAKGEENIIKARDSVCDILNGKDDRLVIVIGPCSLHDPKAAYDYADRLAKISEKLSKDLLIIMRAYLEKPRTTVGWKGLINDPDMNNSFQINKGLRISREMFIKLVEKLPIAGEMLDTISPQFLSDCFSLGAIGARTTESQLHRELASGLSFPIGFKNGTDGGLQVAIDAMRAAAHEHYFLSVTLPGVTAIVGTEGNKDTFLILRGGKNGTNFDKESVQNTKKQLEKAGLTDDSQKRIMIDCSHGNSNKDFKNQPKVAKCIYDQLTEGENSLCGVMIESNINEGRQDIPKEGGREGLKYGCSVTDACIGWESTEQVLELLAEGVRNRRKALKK

T1 sequence (P14843 whole entry D154N): as the sequence (P14843 whole entry K222L) above, with D154N, L222K counted along it
T2 sequence (P14843 whole entry): as the sequence (P14843 whole entry K222L) above, with L222K counted along it

N[C@@H](Cc1ccccc1)C(=O)O [L-Phe]
remaining activity at 10000 µM (Aro3 [1]): 71.2%
Kd (Aro3 [2]): 336 ± 31.2 µM
inhibition at 100 µM (Aro3 [3]): ~50%
Kd (Aro3 [4]): 31.4 µM
inhibition at 100 µM (Aro3 [5]): ~50%
